{"source": "PubChem BioAssay AID1745844", "about": "(Carcinogenic Potency Database (CPDB), 2022)", "system": "rodent lifetime carcinogenesis bioassay, tumor incidence TD50", "experiment": "chronic cancer bioassays in animals – CPDB, compiled studies (AID 1745844)", "conditions": "rat, in feed", "note": "Calls of active or inactive are those of the source. No rule for the calls is given here.", "data": [{"molecule": "OCC(CO)(CBr)CBr", "values": [{"measurement": "TD50", "setting": "strain Fischer 344, males, site: kidney, lesion: tubule adenoma, dosed 12 weeks, study length 103 weeks", "result": 970, "unit": "mg/kg/day"}, {"measurement": "TD50", "setting": "strain Fischer 344, males, site: kidney, lesion: tubule adenoma, dosed 104 weeks, study length 105 weeks", "result": 1550, "unit": "mg/kg/day"}, {"measurement": "TD50", "setting": "strain Fischer 344, males, site: liver, lesion: hepatocellular adenoma + hepatoblastoma + hepatocellular carcinoma, dosed 12 weeks, study length 103 weeks", "result": 702, "unit": "mg/kg/day"}, {"measurement": "TD50", "setting": "strain Fischer 344, males, site: liver, lesion: hepatocellular adenoma + hepatoblastoma + hepatocellular carcinoma, dosed 104 weeks, study length 105 weeks", "result": 1840, "unit": "mg/kg/day"}, {"measurement": "TD50", "setting": "strain Fischer 344, males, site: lung, lesion: alveolar/bronchiolar adenoma + alveolar/bronchiolar carcinoma, dosed 12 weeks, study length 103 weeks", "result": 52.4, "unit": "mg/kg/day"}, {"measurement": "TD50", "setting": "strain Fischer 344, males, site: lung, lesion: alveolar/bronchiolar adenoma + alveolar/bronchiolar carcinoma, dosed 104 weeks, study length 105 weeks", "result": 729, "unit": "mg/kg/day"}, {"measurement": "TD50", "setting": "strain Fischer 344, males, site: lung, lesion: alveolar/bronchiolar adenoma, dosed 12 weeks, study length 103 weeks", "result": 73.1, "unit": "mg/kg/day"}, {"measurement": "TD50", "setting": "strain Fischer 344, males, site: lung, lesion: alveolar/bronchiolar carcinoma, dosed 12 weeks, study length 103 weeks", "result": 327, "unit": "mg/kg/day"}, {"measurement": "TD50", "setting": "strain Fischer 344, males, site: lung, lesion: alveolar/bronchiolar carcinoma, dosed 104 weeks, study length 105 weeks", "result": 1300, "unit": "mg/kg/day"}, {"measurement": "TD50", "setting": "strain Fischer 344, males, site: lung, lesion: squamous-cell carcinoma, dosed 12 weeks, study length 103 weeks", "result": 484, "unit": "mg/kg/day"}, {"measurement": "TD50", "setting": "strain Fischer 344, males, site: mammary gland, lesion: adenoma + fibroadenoma, dosed 104 weeks, study length 105 weeks", "result": 262, "unit": "mg/kg/day"}, {"measurement": "TD50", "setting": "strain Fischer 344, males, site: mammary gland, lesion: fibroadenoma, dosed 12 weeks, study length 103 weeks", "result": 78.3, "unit": "mg/kg/day"}, {"measurement": "TD50", "setting": "strain Fischer 344, males, site: mammary gland, lesion: fibroadenoma, dosed 104 weeks, study length 105 weeks", "result": 275, "unit": "mg/kg/day"}, {"measurement": "TD50", "setting": "strain Fischer 344, males, site: palate + tongue, lesion: squamous-cell carcinoma + squamous-cell papilloma, dosed 12 weeks, study length 103 weeks", "result": 24, "unit": "mg/kg/day"}, {"measurement": "TD50", "setting": "strain Fischer 344, males, site: palate + tongue, lesion: squamous-cell papilloma, dosed 12 weeks, study length 103 weeks", "result": 24.6, "unit": "mg/kg/day"}, {"measurement": "TD50", "setting": "strain Fischer 344, males, site: palate + tongue, lesion: squamous-cell papilloma, dosed 104 weeks, study length 105 weeks", "result": 300, "unit": "mg/kg/day"}, {"measurement": "TD50", "setting": "strain Fischer 344, males, site: palate, lesion: squamous-cell papilloma, dosed 12 weeks, study length 103 weeks", "result": 115, "unit": "mg/kg/day"}, {"measurement": "TD50", "setting": "strain Fischer 344, males, site: palate, lesion: squamous-cell papilloma, dosed 104 weeks, study length 105 weeks", "result": 808, "unit": "mg/kg/day"}, {"measurement": "TD50", "setting": "strain Fischer 344, males, site: pancreas, lesion: acinar-cell adenoma, dosed 12 weeks, study length 103 weeks", "result": 193, "unit": "mg/kg/day"}, {"measurement": "TD50", "setting": "strain Fischer 344, males, site: pancreas, lesion: acinar-cell adenoma, dosed 104 weeks, study length 105 weeks", "result": 516, "unit": "mg/kg/day"}, {"measurement": "TD50", "setting": "strain Fischer 344, males, site: pancreatic islets, lesion: islet-cell adenoma + islet-cell carcinoma, dosed 104 weeks, study length 105 weeks", "result": 208, "unit": "mg/kg/day"}, {"measurement": "TD50", "setting": "strain Fischer 344, males, site: pituitary gland, lesion: pars distalis adenoma + pars distalis carcinoma, dosed 104 weeks, study length 105 weeks", "result": 462, "unit": "mg/kg/day"}, {"measurement": "TD50", "setting": "strain Fischer 344, males, site: pituitary gland, lesion: pars distalis adenoma, dosed 12 weeks, study length 103 weeks", "result": 67.3, "unit": "mg/kg/day"}, {"measurement": "TD50", "setting": "strain Fischer 344, males, site: pituitary gland, lesion: pars distalis adenoma, dosed 104 weeks, study length 105 weeks", "result": 493, "unit": "mg/kg/day"}, {"measurement": "TD50", "setting": "strain Fischer 344, males, site: preputial gland, lesion: adenoma + carcinoma, dosed 12 weeks, study length 103 weeks", "result": 39, "unit": "mg/kg/day"}, {"measurement": "TD50", "setting": "strain Fischer 344, males, site: preputial gland, lesion: adenoma + carcinoma, dosed 104 weeks, study length 105 weeks", "result": 793, "unit": "mg/kg/day"}, {"measurement": "TD50", "setting": "strain Fischer 344, males, site: preputial gland, lesion: adenoma, dosed 12 weeks, study length 103 weeks", "result": 22.8, "unit": "mg/kg/day"}, {"measurement": "TD50", "setting": "strain Fischer 344, males, site: preputial gland, lesion: adenoma, dosed 104 weeks, study length 105 weeks", "result": 819, "unit": "mg/kg/day"}, {"measurement": "TD50", "setting": "strain Fischer 344, males, site: seminal vesicle, lesion: adenoma + carcinoma, dosed 12 weeks, study length 103 weeks", "result": 453, "unit": "mg/kg/day"}, {"measurement": "TD50", "setting": "strain Fischer 344, males, site: skin, lesion: basal-cell adenoma + basal-cell carcinoma + keratoacanthoma + squamous-cell carcinoma + squamous-cell papilloma + trichoepitheliom, dosed 104 weeks, study length 105 weeks", "result": 166, "unit": "mg/kg/day"}, {"measurement": "TD50", "setting": "strain Fischer 344, males, site: skin, lesion: basal-cell adenoma + basal-cell carcinoma + trichoepithelioma, dosed 104 weeks, study length 105 weeks", "result": 720, "unit": "mg/kg/day"}, {"measurement": "TD50", "setting": "strain Fischer 344, males, site: skin, lesion: basal-cell adenoma + keratoacanthoma + squamous-cell carcinoma + squamous-cell papilloma + trichoepithelioma, dosed 12 weeks, study length 103 weeks", "result": 16.9, "unit": "mg/kg/day"}, {"measurement": "TD50", "setting": "strain Fischer 344, males, site: skin, lesion: basal-cell adenoma + trichoepithelioma, dosed 12 weeks, study length 103 weeks", "result": 64.6, "unit": "mg/kg/day"}, {"measurement": "TD50", "setting": "strain Fischer 344, males, site: skin, lesion: basal-cell adenoma, dosed 12 weeks, study length 103 weeks", "result": 82.3, "unit": "mg/kg/day"}, {"measurement": "TD50", "setting": "strain Fischer 344, males, site: skin, lesion: basal-cell adenoma, dosed 104 weeks, study length 105 weeks", "result": 1530, "unit": "mg/kg/day"}, {"measurement": "TD50", "setting": "strain Fischer 344, males, site: skin, lesion: keratoacanthoma, dosed 12 weeks, study length 103 weeks", "result": 42.5, "unit": "mg/kg/day"}, {"measurement": "TD50", "setting": "strain Fischer 344, males, site: skin, lesion: keratoacanthoma, dosed 104 weeks, study length 105 weeks", "result": 235, "unit": "mg/kg/day"}, {"measurement": "TD50", "setting": "strain Fischer 344, males, site: skin, lesion: squamous-cell carcinoma + squamous-cell papilloma, dosed 12 weeks, study length 103 weeks", "result": 21.7, "unit": "mg/kg/day"}, {"measurement": "TD50", "setting": "strain Fischer 344, males, site: skin, lesion: squamous-cell carcinoma + squamous-cell papilloma, dosed 104 weeks, study length 105 weeks", "result": 1130, "unit": "mg/kg/day"}, {"measurement": "TD50", "setting": "strain Fischer 344, males, site: skin, lesion: squamous-cell papilloma, dosed 12 weeks, study length 103 weeks", "result": 46.2, "unit": "mg/kg/day"}, {"measurement": "TD50", "setting": "strain Fischer 344, males, site: skin, lesion: squamous-cell papilloma, dosed 104 weeks, study length 105 weeks", "result": 1130, "unit": "mg/kg/day"}, {"measurement": "TD50", "setting": "strain Fischer 344, males, site: subcutaneous tissue, lesion: fibroma, dosed 12 weeks, study length 103 weeks", "result": 111, "unit": "mg/kg/day"}, {"measurement": "TD50", "setting": "strain Fischer 344, males, site: subcutaneous tissue, lesion: fibroma, dosed 104 weeks, study length 105 weeks", "result": 271, "unit": "mg/kg/day"}, {"measurement": "TD50", "setting": "strain Fischer 344, males, site: subcutaneous tissue, lesion: fibrosarcoma + fibroma + sarcoma, dosed 12 weeks, study length 103 weeks", "result": 87.3, "unit": "mg/kg/day"}, {"measurement": "TD50", "setting": "strain Fischer 344, males, site: subcutaneous tissue, lesion: fibrosarcoma + fibroma + sarcoma, dosed 104 weeks, study length 105 weeks", "result": 221, "unit": "mg/kg/day"}, {"measurement": "TD50", "setting": "strain Fischer 344, males, site: subcutaneous tissue, lesion: fibrosarcoma + sarcoma, dosed 12 weeks, study length 103 weeks", "result": 654, "unit": "mg/kg/day"}, {"measurement": "TD50", "setting": "strain Fischer 344, males, site: subcutaneous tissue, lesion: fibrosarcoma + sarcoma, dosed 104 weeks, study length 105 weeks", "result": 1080, "unit": "mg/kg/day"}, {"measurement": "TD50", "setting": "strain Fischer 344, males, site: subcutaneous tissue, lesion: sarcoma, dosed 104 weeks, study length 105 weeks", "result": 1550, "unit": "mg/kg/day"}, {"measurement": "TD50", "setting": "strain Fischer 344, males, site: testis, lesion: interstitial-cell adenoma, bilateral + interstitial-cell adenoma, dosed 12 weeks, study length 103 weeks", "result": 5.94, "unit": "mg/kg/day"}, {"measurement": "TD50", "setting": "strain Fischer 344, males, site: testis, lesion: interstitial-cell adenoma, bilateral + interstitial-cell adenoma, dosed 104 weeks, study length 105 weeks", "result": 66.5, "unit": "mg/kg/day"}, {"measurement": "TD50", "setting": "strain Fischer 344, males, site: thyroid gland, lesion: c-cell adenoma + c-cell carcinoma, bilateral + c-cell carcinoma, dosed 104 weeks, study length 105 weeks", "result": 675, "unit": "mg/kg/day"}, {"measurement": "TD50", "setting": "strain Fischer 344, males, site: thyroid gland, lesion: c-cell carcinoma, bilateral + c-cell carcinoma, dosed 104 weeks, study length 105 weeks", "result": 1920, "unit": "mg/kg/day"}, {"measurement": "TD50", "setting": "strain Fischer 344, males, site: thyroid gland, lesion: follicular-cell adenoma + follicular-cell carcinoma, dosed 12 weeks, study length 103 weeks", "result": 82.6, "unit": "mg/kg/day"}, {"measurement": "TD50", "setting": "strain Fischer 344, males, site: thyroid gland, lesion: follicular-cell adenoma + follicular-cell carcinoma, dosed 104 weeks, study length 105 weeks", "result": 629, "unit": "mg/kg/day"}, {"measurement": "TD50", "setting": "strain Fischer 344, males, site: thyroid gland, lesion: follicular-cell adenoma, dosed 12 weeks, study length 103 weeks", "result": 132, "unit": "mg/kg/day"}, {"measurement": "TD50", "setting": "strain Fischer 344, males, site: thyroid gland, lesion: follicular-cell carcinoma, dosed 104 weeks, study length 105 weeks", "result": 1110, "unit": "mg/kg/day"}, {"measurement": "TD50", "setting": "strain Fischer 344, males, site: tongue, lesion: squamous-cell papilloma, dosed 12 weeks, study length 103 weeks", "result": 30.8, "unit": "mg/kg/day"}, {"measurement": "TD50", "setting": "strain Fischer 344, males, site: tongue, lesion: squamous-cell papilloma, dosed 104 weeks, study length 105 weeks", "result": 500, "unit": "mg/kg/day"}, {"measurement": "TD50", "setting": "strain Fischer 344, males, site: urinary bladder, lesion: transitional-cell carcinoma + transitional-cell papilloma, dosed 12 weeks, study length 103 weeks", "result": 223, "unit": "mg/kg/day"}, {"measurement": "TD50", "setting": "strain Fischer 344, males, site: urinary bladder, lesion: transitional-cell carcinoma + transitional-cell papilloma, dosed 104 weeks, study length 105 weeks", "result": 2320, "unit": "mg/kg/day"}, {"measurement": "TD50", "setting": "strain Sprague-Dawley Spartan, females, site: any site (literature study), lesion: several types, types named in the paper, dosed 104 weeks, study length 104 weeks", "result": "1730 mg/kg/day (inactive)"}, {"measurement": "carcinogen call", "setting": "strain Sprague-Dawley Spartan, females, site: liver, lesion: hepatocellular carcinoma, dosed 104 weeks, study length 104 weeks", "result": "negative (inactive)"}, {"measurement": "TD50", "setting": "strain Sprague-Dawley Spartan, females, site: liver, lesion: hepatocellular hyperplastic nodule, dosed 104 weeks, study length 104 weeks", "result": "2550 mg/kg/day (inactive)"}, {"measurement": "carcinogen call", "setting": "strain Sprague-Dawley Spartan, males, site: any site (literature study), lesion: several types, types named in the paper, dosed 104 weeks, study length 104 weeks", "result": "negative (inactive)"}, {"measurement": "carcinogen call", "setting": "strain Sprague-Dawley Spartan, males, site: liver, lesion: hepatocellular carcinoma, dosed 104 weeks, study length 104 weeks", "result": "negative (inactive)"}, {"measurement": "carcinogen call", "setting": "strain Sprague-Dawley Spartan, males, site: liver, lesion: hepatocellular hyperplastic nodule, dosed 104 weeks, study length 104 weeks", "result": "negative (inactive)"}]}]}
